Active and inactive are the calls of the source. No cut-off for these calls is given here.
Key:
LoVo [1] = assay: Antiproliferative activity against human LoVo cells after 72 hrs by SRB assay; assay type: functional, cell-based
[2] = Antiproliferative activity against human LoVo/DX cells after 72 hrs by SRB assay; assay type: functional, cell-based
MES-SA = assay: Antiproliferative activity against human MES-SA cells after 72 hrs by SRB assay; assay type: functional, cell-based
MES-SA/Dx5 = assay: Antiproliferative activity against human MES-SA/Dx5 cells after 72 hrs by SRB assay; assay type: functional, cell-based; details: MES-SA/Dx5, 72 h
[3] = Resistance index, ratio of IC50 for antiproliferative activity against human HL60/MX2 cells to IC50 for antiproliferative activity against human HL60 cells; assay type: functional
BALB/3T3 = assay: Antiproliferative activity against mouse BALB/3T3 cells after 72 hrs by MTT assay; assay type: cell-based; details: BALB/3T3, 72 h
4T1 = assay: Antiproliferative activity against mouse 4T1 cells after 72 hrs by MTT assay; assay type: functional, cell-based; details: 4T1, 72 h
HL60/MX2 = assay: Antiproliferative activity against human HL60/MX2 cells after 72 hrs by SRB assay; assay type: functional, cell-based; details: HL60/MX2, 72 h
HL-60 = assay: Antiproliferative activity against human HL60 cells after 72 hrs by SRB assay; assay type: functional, cell-based; details: HL-60, 72 h
LoVo [4] = assay: Cell cycle arrest in human LoVo cells assessed as accumulation at G2/M phase at 15 uM after 24 hrs by propidium iodide staining based flow cytometry (reference value: 21%); assay type: functional
LoVo [5] = assay: Induction of apoptosis in human LoVo cells assessed as caspase-3 activation at 15 uM after 24 hrs by Ac-DEVD-ACC substrate based fluorescence assay relative to control; assay type: functional

| SMILES | IC50 (LoVo [1]) [µM] | IC50 [2] [µM] | other results |
| --- | --- | --- | --- |
| COP(=O)(CCCCCNC(=S)SC[C@H](NC(C)=O)C(=O)O)c1ccccc1 (some centres not stated) | 2.5 | 2.6 |  |
| COc1cccc2c1C(=O)c1c(O)c3c(c(O)c1C2=O)C[C@@](O)(C(=O)CO)C[C@@H]3O[C@H]1C[C@H](N)[C@H](O)[C@H](C)O1 [DOXORUBICIN] |  |  | IC50 (MES-SA): 0.16 µM; IC50 (MES-SA/Dx5): 16.2 µM |
| CC(=O)N[C@@H](CSC(=S)NCCCCP(=O)(OC(C)C)OC(C)C)C(=O)O | 2.6 | 8.9 |  |
| CC(=O)N[C@@H](CSC(=S)NCCCCCP(=O)(c1ccccc1)c1ccccc1)C(=O)O | 1.5 | 4.3 |  |
| CC(=O)N[C@@H](CSC(=S)NCCCCP(=O)(Oc1ccccc1)Oc1ccccc1)C(=O)O | 2.2 | 7.9 |  |
| CC(=O)N[C@@H](CSC(=S)NCCP(=O)(c1ccccc1)c1ccccc1)C(=O)O | 2 | 7.7 |  |
| CC(=O)N[C@@H](CSC(=S)NCCCCCP(=O)(Oc1ccccc1)Oc1ccccc1)C(=O)O | 1.9 | 8 |  |
| O=C1c2c(O)ccc(O)c2C(=O)c2c(NCCNCCO)ccc(NCCNCCO)c21 [MITOXANTRONE] |  |  | Ratio IC50 [3]: 37 |
| COP(=O)(CCCCCCN=C=S)c1ccccc1 (configuration not stated) | 1.8 | 2.3 |  |
| CC(=O)N[C@@H](CSC(=S)NCCCCCP(=O)(OC(C)C)OC(C)C)C(=O)O | 2.4 | 3.4 |  |
| CCOP(=O)(CCCCCCNC(=S)SC[C@H](NC(C)=O)C(=O)O)c1ccccc1 (some centres not stated) | 1.5 | 2.2 | IC50 (BALB/3T3): 7.9 µM; IC50 (4T1): 1.9 µM; IC50 (MES-SA): 2.8 µM; IC50 (MES-SA/Dx5): 2.6 µM; IC50 (HL60/MX2): 0.7 µM; IC50 (HL-60): 0.4 µM; Activity (LoVo [4]): 22%; fold change (FC) (LoVo [5]): 2.8 |
| CC(=O)N[C@@H](CSC(=S)NCCCP(=O)(Oc1ccccc1)Oc1ccccc1)C(=O)O | 2 | 7.6 |  |
| CCOP(=O)(CCCNC(=S)SC[C@H](NC(C)=O)C(=O)O)c1ccccc1 (some centres not stated) | 2.2 | 3.4 |  |
| CC(=O)N[C@@H](CSC(=S)NCCP(=O)(Oc1ccccc1)Oc1ccccc1)C(=O)O | 3.5 | 9 |  |
| CC(=O)N[C@@H](CSC(=S)NCCCP(=O)(OC(C)C)OC(C)C)C(=O)O | 3.1 | 8.5 |  |
| CC(=O)N[C@@H](CSC(=S)NCCCCCCP(=O)(Oc1ccccc1)Oc1ccccc1)C(=O)O | 2.5 | 11.3 |  |
| CCOP(=O)(CCCCCNC(=S)SC[C@H](NC(C)=O)C(=O)O)c1ccccc1 (some centres not stated) | 2 | 3.3 |  |
| CCCCNC(=S)SC[C@H](NC(C)=O)C(=O)O | 201 | 224 |  |
| COP(=O)(CCCCN=C=S)c1ccccc1 (configuration not stated) | 3.1 | 2.3 |  |
| CC(=O)N[C@@H](CSC(=S)NCCCP(=O)(c1ccccc1)c1ccccc1)C(=O)O | 4.6 | 5.6 |  |

The next lines start with results.

| IC50 (LoVo [1]) [µM] | SMILES | IC50 [2] [µM] | other results |
| --- | --- | --- | --- |
| 6.4 | CCOC(OCC)P(=O)(CCCCNC(=S)SC[C@H](NC(C)=O)C(=O)O)OCC (some centres not stated) | 11.3 |  |
| 2.2 | CC(=O)N[C@@H](CSC(=S)NCCP(=O)(OCC(C)C)OCC(C)C)C(=O)O | 3.9 |  |
| 2.5 | CCOP(=O)(CCCCNC(=S)SC[C@H](NC(C)=O)C(=O)O)c1ccccc1 (some centres not stated) | 3.5 |  |
| 19.3 | CC(=O)N[C@@H](CSC(=S)NCCCP(=O)(OCC(C)C)OCC(C)C)C(=O)O | 17.9 |  |
| 2 | O=P(CCN=C=S)(c1ccccc1)c1ccccc1 | 2.2 |  |
| 2.2 | O=P(CCCCN=C=S)(c1ccccc1)c1ccccc1 | 2.2 |  |
| 2.2 | CCOP(=O)(CCCCCNC(=S)SC[C@H](NC(C)=O)C(=O)O)OCC | 4 |  |
| 5 | CC(=O)N[C@@H](CSC(=S)NCCP(=O)(OC(C)C)OC(C)C)C(=O)O | 8.1 |  |
| 2.7 | COP(=O)(CCCCNC(=S)SC[C@H](NC(C)=O)C(=O)O)c1ccccc1 (some centres not stated) | 2.9 |  |
| 2.2 | CCOP(=O)(CCCCCCNC(=S)SC[C@H](NC(C)=O)C(=O)O)OCC | 2.6 |  |
| 3 | CC(=O)N[C@@H](CSC(=S)NCCCCP(=O)(OCC(C)C)OCC(C)C)C(=O)O | 9 |  |
| 2.1 | CC(=O)N[C@@H](CSC(=S)NCCCCCCP(=O)(c1ccccc1)c1ccccc1)C(=O)O | 8.1 |  |
| 3 | CCOC(OCC)P(=O)(CCCCCNC(=S)SC[C@H](NC(C)=O)C(=O)O)OCC (some centres not stated) | 8.4 |  |
| 3.3 | CCOP(=O)(CCCCNC(=S)SC[C@H](NC(C)=O)C(=O)O)OCC | 10 |  |
| 1.8 | CC(=O)N[C@@H](CSC(=S)NCCCCCCP(=O)(OC(C)C)OC(C)C)C(=O)O | 3.4 | Ratio IC50 [3]: 5; IC50 (BALB/3T3): 10.9 µM; IC50 (4T1): 2.5 µM; IC50 (MES-SA): 9.9 µM; IC50 (MES-SA/Dx5): 10.3 µM; IC50 (HL60/MX2): 3 µM; IC50 (HL-60): 0.6 µM; Activity (LoVo [4]): 24%; fold change (FC) (LoVo [5]): 2.2 |
| 7 | CCOC(OCC)P(=O)(CCCCN=C=S)OCC (configuration not stated) | 11.2 |  |
| 2.2 | CCOP(=O)(CCNC(=S)SC[C@H](NC(C)=O)C(=O)O)OCC | 8 |  |
| 11.1 | CC(=O)N[C@@H](CSC(=S)NCCCCCCP(=O)(OCC(C)C)OCC(C)C)C(=O)O | 10.9 |  |
| 4.4 | CC(=O)N[C@@H](CSC(=S)NCCCCP(=O)(c1ccccc1)c1ccccc1)C(=O)O | 8.1 |  |
| 3.1 | CCOC(OCC)P(=O)(CCCCCCNC(=S)SC[C@H](NC(C)=O)C(=O)O)OCC (some centres not stated) | 10.4 |  |
| 2.3 | CCOP(=O)(CCCCCCN=C=S)c1ccccc1 (configuration not stated) | 4 |  |
| 20.5 | CC(=O)N[C@@H](CSC(=S)NCCCC[S+](C)[O-])C(=O)O (some centres not stated) | 14 | Activity (LoVo [5]): Active |
| 5.1 | CCOC(OCC)P(=O)(CCCCCCN=C=S)OCC (configuration not stated) | 10.6 |  |
| 2.1 | COP(=O)(CCCCCCNC(=S)SC[C@H](NC(C)=O)C(=O)O)c1ccccc1 (some centres not stated) | 2.8 |  |
| 2.2 | O=P(CCCCCCN=C=S)(c1ccccc1)c1ccccc1 | 3.1 |  |
| 11.5 | CC(=O)N[C@@H](CSC(=S)NCc1ccccc1)C(=O)O | 15.4 | Activity (LoVo [4]): 49%; fold change (FC) (LoVo [5]): >10 |
| 2.5 | CCOP(=O)(CCCCN=C=S)c1ccccc1 (configuration not stated) | 4.1 |  |
| 2.2 | CCOP(=O)(CCCNC(=S)SC[C@H](NC(C)=O)C(=O)O)OCC | 2.5 |  |
| 2.6 | CC(=O)N[C@@H](CSC(=S)NCCCCCP(=O)(OCC(C)C)OCC(C)C)C(=O)O | 8.8 |  |
